Results: patent US5100873A, “Irreversible peptide ligands for bombesin receptors, their use, and process for making the same” (priority 1988, dated 1992)
Where a name gives a salt, the structure may show the parent alone. Read-outs that look alike come from different tables or passages of the source. *1 amine or outer side, *2 acyl side, *3 side chain or, on linkers, in order; H or OH if unused. Where a SMILES comes first, the peptide text is derived from it. [ ]: non-standard residue; d: D form. The star is where a group is joined. Phe(4-N(CH2CH2Cl)2) = N[C@@H](Cc1ccc(N(CCCl)CCCl)cc1)C(=O)O; X1 = O=C([C@H](Cc1cccc(N(CCCl)CCCl)c1)N[*:1])[*:2]; Boc = CC(C)(C)OC(=O)*

Experiments:
bombesin receptors = biological target: T1, bombesin receptors (Mus musculus, UniProt P21729); assay: Binding affinity for bombesin receptors on mouse Swiss 3T3 fibroblasts; conditions: for ID50: mouse Swiss 3T3 fibroblasts
T1 construct: bombesin receptors was determined on mouse Swiss 3T3 fibroblasts; endogenous in cells; host or cells: mouse Swiss 3T3 fibroblasts
Method: The binding affinity of the compounds of the present invention for bombesin receptors was determined on mouse Swiss 3T3 fibroblasts (I. Zachary and E. Rozengurt (1985) Proc. Natl. Acad. Sci. USA, 82, 7616-7620) (Table 1).

Swiss 3T3 fibroblasts [1] = assay: [H3]thymidine incorporation (mitogenesis), analogues given alone; type: cell-based, mouse; conditions: for [H3]thymidine incorporation, fold increase over basal value: analogue alone; for Effect on thymidine incorporation (in words): given alone
Method: (§1) The effect on mitogenesis was determined in quiescent and confluent Swiss 3T3 cells maintained in serum free medium (A. N. Corps et al (1985) Biochem J. 231, 781-785). In a first set of experiments, analogues were given alone or in combination with bombesin. In a second set of experiments, cells were pre-treated with the alkylating peptides, washed, left at 37° C. for 24 hours and then challenged with bombesin. In both cases, DNA synthesis was evaluated as [H^3 ]thymidine incorporation (Table 2).

Swiss 3T3 fibroblasts [2] = assay: Inhibition of BBS-induced [H3]thymidine incorporation (given with BBS or as pre-treatment); type: cell-based, mouse; conditions: for % inhibition in the presence of 25 nM BBS (A): A = analogues given in combination with BBS; for % inhibition in the presence of 25 nM BBS (B): B = cells pretreated with analogues, washed, left at 37° C. for 24 h, then challenged with BBS; for Antagonism of BBS (in words): given together / contemporaneously with BBS
Method: as §1

[3] = test system: p115 protein associated with the bombesin receptor complex; assay: Phosphorylation of the p115 protein associated with the bombesin receptor; type: cell-based
Method: Mitogenic effect of bombesin and its analogues were also evaluated as activation of the proteintyrosin kinase that phosphorylates a 115 KD protein (p115) associated with the bombesin receptor complex (D. Cirillo et al. (1986) Mol. Cell. Biol. 6, 4641-4649) (Table 3).

Swiss 3T3 fibroblasts [4] = assay: Inhibition of BBS-induced [H3]thymidine incorporation (given with BBS or as pre-treatment); type: cell-based, mouse

T1 sequence (P21729 whole entry): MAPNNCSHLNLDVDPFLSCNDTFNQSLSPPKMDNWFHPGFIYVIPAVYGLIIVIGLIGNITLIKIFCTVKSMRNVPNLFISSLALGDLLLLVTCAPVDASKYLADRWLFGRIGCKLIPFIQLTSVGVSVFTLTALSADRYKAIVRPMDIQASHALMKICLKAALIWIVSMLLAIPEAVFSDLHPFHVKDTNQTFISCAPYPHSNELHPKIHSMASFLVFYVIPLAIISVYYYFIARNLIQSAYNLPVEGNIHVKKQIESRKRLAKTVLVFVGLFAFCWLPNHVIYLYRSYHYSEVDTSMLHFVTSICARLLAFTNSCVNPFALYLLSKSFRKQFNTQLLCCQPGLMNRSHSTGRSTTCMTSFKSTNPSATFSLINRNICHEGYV

In the case of “H-pMel-Gln-Trp-Ala-Val-Gly-His(Dnp)-Leu-Met-NH2.HCl”, the ID50 (bombesin receptors) is reported as 680 ± 150 nM, the “[H3]thymidine incorporation, fold increase over basal value” (Swiss 3T3 fibroblasts [1]; 5 nM) is reported as 1 and the “[H3]thymidine incorporation, fold increase over basal value” (Swiss 3T3 fibroblasts [1]; 50 nM) is reported as 1. For the same compound, the “[H3]thymidine incorporation, fold increase over basal value” (Swiss 3T3 fibroblasts [1]; 500 nM) was 1.4, the “[H3]thymidine incorporation, fold increase over basal value” (Swiss 3T3 fibroblasts [1]; 5000 nM) was 1.8 and the “Effect on thymidine incorporation (in words)” value (“Effect” below) (Swiss 3T3 fibroblasts [1]) was “did not increase incorporation of thymidine”. For the same compound, the “% inhibition in the presence of 25 nM BBS (A)” value (shortened to “% inhibition … (A)”) (Swiss 3T3 fibroblasts [2]; 500 nM) was 26 ± 8%, the “% inhibition in the presence of 25 nM BBS (B)” value (from here on “% inhibition … (B)”) (Swiss 3T3 fibroblasts [2]; 500 nM) was 87 ± 9% and the “% inhibition … (A)” value (Swiss 3T3 fibroblasts [2]; 5000 nM) was 44 ± 12%. For the same compound, the “% inhibition … (B)” value (Swiss 3T3 fibroblasts [2]; 5000 nM) was 83 ± 6%, the “Antagonism of BBS (in words)” value (Swiss 3T3 fibroblasts [2]) was “potent antagonists” and the “Minimal active dose, p115 phosphorylation” value (“Minimal active dose” for short) [3] was 100 nM. For the same compound, the “Antagonism of BBS (in words)” value (Swiss 3T3 fibroblasts [4]) was “potent antagonists”.
With `CC(C)[C@H](NC(=O)[C@H](C)NC(=O)[C@H](Cc1c[nH]c2ccccc12)NC(=O)[C@H](CCC(N)=O)NC(=O)[C@H](Cc1cccc(N(CCCl)CCCl)c1)NC(=O)OC(C)(C)C)C(=O)NCC(=O)O` [IX, Boc-mMel-Gln-Trp-Ala-Val-Gly-OH] (Boc-[X1]QWAVG-OH) the IC50 (bombesin receptors) was 8200 nM.
In the case of `CSCC[C@H](NC(=O)[C@H](CC(C)C)NC(=O)[C@H](Cc1c[nH]cn1)NC(=O)CNC(=O)[C@@H](NC(=O)[C@H](C)NC(=O)[C@H](Cc1c[nH]c2ccccc12)NC(=O)[C@H](CCC(N)=O)NC(=O)[C@H](Cc1ccc(N(CCCl)CCCl)cc1)NC(=O)OC(C)(C)C)C(C)C)C(N)=O` [VI, Boc-pMel-Gln-Trp-Ala-Val-Gly-His-Leu-Met-NH2], the IC50 (bombesin receptors) is reported as 48 ± 2 nM.
Compound `CSCC[C@H](NC(=O)[C@H](CC(C)C)NC(=O)[C@H](Cc1c[nH]cn1)NC(=O)CNC(=O)[C@@H](NC(=O)[C@H](C)NC(=O)[C@H](Cc1c[nH]c2ccccc12)NC(=O)[C@H](CCC(N)=O)NC(=O)[C@@H](N)Cc1cccc(N(CCCl)CCCl)c1)C(C)C)C(N)=O` [XIX, H-mMel-Gln-Trp-Ala-Val-Gly-His-Leu-Met-NH2.2HCl] has an IC50 (bombesin receptors) of 95 ± 8 nM.
For `CC(C)C[C@H](NC(=O)[C@H](CC(C)C)NC(=O)[C@@H](Cc1c[nH]c2ccccc12)NC(=O)[C@H](Cc1ccccc1)NC(=O)[C@@H](Cc1c[nH]c2ccccc12)NC(=O)[C@H](CCC(N)=O)NC(=O)[C@H](CCC(N)=O)NC(=O)[C@@H]1CCCN1C(=O)[C@H](CCCCN)NC(=O)[C@@H]1CCCN1C(=O)[C@H](N)CCCNC(=N)N)C(N)=O` [Spantide, reference compound] (H-[dR]PKPQQ[dW]F[dW]LL-NH2), the “Minimal active dose” value [3] was > 10000 nM.
In the case of `CSCC[C@H](NC(=O)[C@H](CC(C)C)NC(=O)[C@H](Cc1cnc[nH]1)NC(=O)CNC(=O)[C@@H](NC(=O)[C@H](C)NC(=O)[C@H](Cc1c[nH]c2ccccc12)NC(=O)[C@H](CCC(N)=O)NC(=O)[C@H](CC(N)=O)NC(=O)CNC(=O)[C@H](CC(C)C)NC(=O)[C@H](CCCN=C(N)N)NC(=O)[C@H](CCC(N)=O)NC(=O)[C@@H]1CCC(=O)N1)C(C)C)C(N)=O` [BBS, Glp-Gln-Arg-Leu-Gly-Asn-Gln-Trp-Ala-Val-Gly-His-Leu-Met-NH2, reference compound], the “[H3]thymidine incorporation, fold increase over basal value” (Swiss 3T3 fibroblasts [1]; 5 nM) is reported as 3.0 ± 1 and the “Minimal active dose” value [3] is reported as 3.
Compound `CSCC[C@H](NC(=O)[C@H](CC(C)C)NC(=O)CNC(=O)[C@@H](NC(=O)[C@H](C)NC(=O)[C@H](Cc1c[nH]c2ccccc12)NC(=O)[C@H](CCC(N)=O)NC(=O)[C@@H](NC(=O)CNC(=O)[C@H](CC(C)C)NC(=O)[C@H](Cc1cccc(N(CCCl)CCCl)c1)NC(=O)OC(C)(C)C)[C@@H](C)O)C(C)C)C(N)=O` [XIV, Boc-mMel-Leu-Gly-Thr-Gln-Trp-Ala-Val-Gly-Leu-Met-NH2] (Boc-[X1]LGTQWAVGLM-NH2) has an IC50 (bombesin receptors) of 445 ± 60 nM.
`CC(C)[C@H](NC(=O)[C@H](C)NC(=O)[C@H](Cc1c[nH]c2ccccc12)NC(=O)[C@H](CCC(N)=O)NC(=O)[C@H](Cc1ccc(N(CCCl)CCCl)cc1)NC(=O)OC(C)(C)C)C(=O)NCC(=O)O` [III, Boc-pMel-Gln-Trp-Ala-Val-Gly-OH] (Boc-[Phe(4-N(CH2CH2Cl)2)]QWAVG-OH) was tested, and the IC50 (bombesin receptors) was 12000 nM.
In the case of “Boc-pMel-Gln-Trp-Ala-Val-Gly-His(Dnp)-Leu-Met-NH2 [IV]”, the ID50 (bombesin receptors) is reported as 1,170 ± 400 nM, the “[H3]thymidine incorporation, fold increase over basal value” (Swiss 3T3 fibroblasts [1]; 5 nM) is reported as 1 and the “[H3]thymidine incorporation, fold increase over basal value” (Swiss 3T3 fibroblasts [1]; 50 nM) is reported as 1. For the same compound, the “[H3]thymidine incorporation, fold increase over basal value” (Swiss 3T3 fibroblasts [1]; 500 nM) was 1.7, the “[H3]thymidine incorporation, fold increase over basal value” (Swiss 3T3 fibroblasts [1]; 5000 nM) was 2.3 and the “Effect” value (Swiss 3T3 fibroblasts [1]) was “did not increase incorporation of thymidine”. For the same compound, the “% inhibition … (A)” value (Swiss 3T3 fibroblasts [2]; 500 nM) was 59 ± 3%, the “% inhibition … (B)” value (Swiss 3T3 fibroblasts [2]; 500 nM) was 81% and the “% inhibition … (A)” value (Swiss 3T3 fibroblasts [2]; 5000 nM) was 67 ± 3%. The “% inhibition … (B)” value (Swiss 3T3 fibroblasts [2]; 5000 nM) was 73%, the “Antagonism of BBS (in words)” value (Swiss 3T3 fibroblasts [2]) was “potent antagonists” and the “Minimal active dose” value [3] was 50 nM. For the same compound, the “Antagonism of BBS (in words)” value (Swiss 3T3 fibroblasts [4]) was “potent antagonists”.
`CSCC[C@H](NC(=O)[C@H](CC(C)C)NC(=O)[C@H](Cc1c[nH]cn1)NC(=O)CNC(=O)[C@@H](NC(=O)[C@H](C)NC(=O)[C@H](Cc1c[nH]c2ccccc12)NC(=O)[C@H](CCC(N)=O)NC(=O)[C@H](Cc1cccc(N(CCCl)CCCl)c1)NC(=O)OC(C)(C)C)C(C)C)C(N)=O` [XVIII, Boc-mMel-Gln-Trp-Ala-Val-Gly-His-Leu-Met-NH3.CF3 COOH] showed an IC50 (bombesin receptors) of 40 ± 12 nM.
`CSCC[C@H](NC(=O)[C@H](CC(C)C)NC(=O)[C@H](Cc1c[nH]cn1)NC(=O)CNC(=O)[C@@H](NC(=O)[C@H](C)NC(=O)[C@H](Cc1c[nH]c2ccccc12)NC(=O)[C@H](CCC(N)=O)NC(=O)[C@@H](N)Cc1ccc(N(CCCl)CCCl)cc1)C(C)C)C(N)=O` [VII, H-pMel-Gln-Trp-Ala-Val-Gly-His-Leu-Met-NH2.2 HCl] showed an IC50 (bombesin receptors) of 60 ± 20 nM.
In the case of “Boc-mMel-Gln-Trp-Ala-Val-Gly-His(Dnp)-Leu-Met-NH2 [XVI]”, the ID50 (bombesin receptors) is reported as 390 ± 160 nM, the “[H3]thymidine incorporation, fold increase over basal value” (Swiss 3T3 fibroblasts [1]; 5 nM) is reported as 1.2 and the “[H3]thymidine incorporation, fold increase over basal value” (Swiss 3T3 fibroblasts [1]; 50 nM) is reported as 1.6. The “[H3]thymidine incorporation, fold increase over basal value” (Swiss 3T3 fibroblasts [1]; 500 nM) was 3.1, the “[H3]thymidine incorporation, fold increase over basal value” (Swiss 3T3 fibroblasts [1]; 5000 nM) was 3.9 and the “Effect” value (Swiss 3T3 fibroblasts [1]) was “did not increase incorporation of thymidine”. For the same compound, the “% inhibition … (A)” value (Swiss 3T3 fibroblasts [2]; 500 nM) was 17 ± 2%, the “% inhibition … (B)” value (Swiss 3T3 fibroblasts [2]; 500 nM) was 47 ± 10% and the “% inhibition … (A)” value (Swiss 3T3 fibroblasts [2]; 5000 nM) was 41 ± 1%. For the same compound, the “% inhibition … (B)” value (Swiss 3T3 fibroblasts [2]; 5000 nM) was 37 ± 7%, the “Antagonism of BBS (in words)” value (Swiss 3T3 fibroblasts [2]) was “potent antagonists” and the “Minimal active dose” value [3] was 40 nM. For the same compound, the “Antagonism of BBS (in words)” value (Swiss 3T3 fibroblasts [4]) was “potent antagonists”.
For `CSCC[C@H](NC(=O)[C@H](CC(C)C)NC(=O)CNC(=O)[C@@H](NC(=O)[C@H](C)NC(=O)[C@H](Cc1c[nH]c2ccccc12)NC(=O)[C@H](CCC(N)=O)NC(=O)[C@H](Cc1cccc(N(CCCl)CCCl)c1)NC(=O)OC(C)(C)C)C(C)C)C(N)=O` [XX, Boc-mMel-Gln-Trp-Ala-Val-Gly-Leu-Met-NH2] (Boc-[X1]QWAVGLM-NH2), the IC50 (bombesin receptors) was 60.1 ± 3.3 nM.
In the case of “H-mMel-Gln-Trp-Ala-Val-Gly-His-(Dnp)-Leu-Met-NH2.HCl [XVII]”, the ID50 (bombesin receptors) is reported as 148 ± 27 nM, the “[H3]thymidine incorporation, fold increase over basal value” (Swiss 3T3 fibroblasts [1]; 5 nM) is reported as 1 and the “[H3]thymidine incorporation, fold increase over basal value” (Swiss 3T3 fibroblasts [1]; 50 nM) is reported as 2.9. The “[H3]thymidine incorporation, fold increase over basal value” (Swiss 3T3 fibroblasts [1]; 500 nM) was 4.2, the “[H3]thymidine incorporation, fold increase over basal value” (Swiss 3T3 fibroblasts [1]; 5000 nM) was 3.9 and the “Effect” value (Swiss 3T3 fibroblasts [1]) was “did not increase incorporation of thymidine”. The “% inhibition … (A)” value (Swiss 3T3 fibroblasts [2]; 500 nM) was 6 ± 3%, the “% inhibition … (B)” value (Swiss 3T3 fibroblasts [2]; 500 nM) was 58 ± 13% and the “% inhibition … (A)” value (Swiss 3T3 fibroblasts [2]; 5000 nM) was 20 ± 7%. For the same compound, the “% inhibition … (B)” value (Swiss 3T3 fibroblasts [2]; 5000 nM) was 62 ± 1%, the “Antagonism of BBS (in words)” value (Swiss 3T3 fibroblasts [2]) was “potent antagonists” and the “Minimal active dose” value [3] was 4 nM. For the same compound, the “Antagonism of BBS (in words)” value (Swiss 3T3 fibroblasts [4]) was “potent antagonists”.
